In US20230410294A1, “METHOD FOR GRADING THE NUCLEAR MORPHOLOGY OF A TUMOR” (Nanyang Technological University, priority 2020, published 2023):
Entries after “also recorded” stand apart in the source; their conditions may differ.

Columns and labels:
Assay type in all cases: cell-based
[1] = test system: SK-N-SH cells; experiment: Nanopillar-guided subnuclear anisotropicity after anti-cancer drug treatment; conditions: SK-N-SH on nanopillar arrays, 24 h, DOX 1 μM, Etop 10 μM; for fraction of cells with dominant isotropic ring features and low deformation coherency: DMSO control 0.262±0.160, FIG. 19e; for pillar coherency: DMSO control 0.3853±0.1448, FIG. 19d
Experimental: (§1) Nanopillar arrays were cleaned and sterilized by air plasma and UV exposure before cell culture. The nanochip was then coated with fibronectin ([…], Sigma-Aldrich) for 30 minutes under 37° C. The SK-N-SH cells were seeded on the nanostructures after coating and grown in Eagle's Minimum Essential Medium (MEM) supplemented with 2 mM L-glutamine (Gibco), 1% MEM Non-Essential Amino Acids (NEAA) (Gibco), 10% fetal bovine serum (FBS) (Life Technologies) and 100 U ml^−1 penicillin and […] streptomycin (Life Technologies) in a standard incubator at 37° C. with 5% CO2. Drug treatment was done after overnight incubation, the SK-N-SH cells on nanostructures are treated with Etoposide (ETOP) (Sigma), Doxorubicin (DOX) (Sigma) or Dimethyl sulfoxide (DMSO) (Sigma). After 24-hour incubation, the treated cells and untreated cells were fixed with 4% Paraformaldehyde (PFA) Solution in PBS (Boster biological technology AR1068) for 15 minutes for subsequent immunostaining.
The nuclear morphology in SK-N-SH cells were visualized by immunostaining lamin A and lamin B1. The lamin A and vimentin level in cells were characterized by immunostaining lamin A and vimentin. Cells were cultured on nanopillars and incubated overnight before fixation with pre-warmed 4% Paraformaldehyde (PFA) in PBS (Boster biological technology AR1068) for 15 minutes at room temperature. After washing with PBS for three times, the cells were permeabilized in 0.5% Triton X-100 (Sigma) in PBS for 15 minutes, followed by blocking with 5% bovine serum albumin (BSA) (Sigma) in PBS for 1 hour. Subsequently, samples were incubated with primary antibodies (anti-lamin A, Abcam, ab26300; anti-lamin B1, Abcam, ab16048; anti-vimentin, Sigma, V5255.) at 1:400 dilution at room temperature for 1 hour or 4° C. overnight. […]
(§2) Fluorescence imaging and live cell imaging were done by confocal microscopy (Zeiss LSM 800 with Airyscan or a spinning disc confocal microscope (SDC) that is built around a Nikon Ti2 inverted microscope equipped with a Yokogawa CSU-W1 confocal spinning head). […] The live cell imaging and subsequent fluorescence imaging were done by SDC and the image acquisition and processing was controlled by MetaMorph (Molecular Device) software.
The guided subnuclear irregularities were characterized by measurement of their anisotropicity. […] After thresholding the cropped images of lamin A channel using the masks, the coherency, an indicator for anisotropy property, of the nanopillar-guided nuclear features was measured using orientationJ (a plugin function in ImageJ).

[2] = test system: SK-N-SH cells; experiment: Lamin A level by immunostaining after anti-cancer drug treatment; conditions: SK-N-SH cells remaining attached after 24 h; DOX 1 μM, Etop 10 μM; vs DMSO; FIG. 19a-b
Experimental: as §1, with “After 24-hour incubation, the treated cells and untreated cells were fixed with 4% Paraformaldehyde (PFA) Solution in PBS (Boster biological technology AR1068) for 15 minutes for subsequent immunostaining.” left out
as §2

[3] = test system: MDA-MB-231 cells; experiment: Nanopillar-guided subnuclear deformation anisotropy (coherency) after drug treatment
[4] = test system: MCF-7 cells; experiment: as above; conditions: MCF-7 on nanopillar arrays, treated vs DMSO; FIG. 9c-d
Experimental: Prior to cell culture, the nanostructured chips were cleaned by air plasma for 10 min and exposed to UV for 15 min Subsequently, the nanostructured substrates were coated with fibronectin (2 ug/ml, Sigma-Aldrich) for 30 minutes at 37° C. After coating, cell culture was performed on the substrates. All the cell lines used in this work were maintained in the Dulbecco's Modified Eagle Medium (DMEM) (Gibco) supplemented with 10% fetal bovine serum (FBS) (Life Technologies) and 1% Penicillin-Streptomycin (Life Technologies) in a standard incubator at 37° C. with 5% CO2. […]
Imaging of the fluorescently labeled cells on nanopillar arrays was performed using laser scanning confocal microscopy (Zeiss LSM 800 with Airyscan). […] Live cell imaging and the subsequent fluorescence imaging was performed using a spinning disc confocal microscope (SDC) that is built around a Nikon Tit inverted microscope equipped with a Yokogawa CSU-W1 confocal spinning head, a Plan-Apo objective (100×1.45-NA), a back-illuminated sCMOS camera (Orca-Fusion; Hamamatsu). […]
Anisotropicity of nanopillar-guided subnuclear shape irregularities was measured on nanopillar arrays. […] Then, the anisotropicity of the subnuclear shape irregularities was measured as coherency, an indicator for anisotropy property, using orientationJ (a plugin function in ImageJ).

[5] = test system: MCF-7 cells; experiment: Wound healing assay (migration rate); conditions: MCF-7, treatment for 24 h vs DMSO, p value=0.7440; FIG. 9e-f
Experimental: (§3) Cells were maintained in 35 mm dishes for each cell line until approximately 90% confluent. Scratch was made in the confluent monolayer of cells with a sterile […] pipette tip, and fresh culture medium was replaced. Brightfield microscopic pictures were taken of the same field at 24 hours. Migration rate was measured by quantifying the closure area within the same time frame using ImageJ.

[6] = test system: MDA-MB-231 cells; experiment: Wound healing assay (migration rate); conditions: MDA-MB-231, treatment for 24 h vs DMSO, p value=0.0363; FIG. 9e-f
Experimental: as §3

| Compound | fraction of cells with dominant isotropic ring features and low deformation coherency [1] | pillar coherency [1] | lamin A level (in words) [2] | lowest concentration at which pillar coherency value and fraction of line-deformation cells responded ([3]; MDA-MB-231, DMSO, 1 μM and 10 μM tested, FIG. 14) [µM] | pillar coherency value ([3]; MDA-MB-231 on nanopillar arrays (500 nm diameter, 3 μm pitch), 24-hour treatment, DMSO control 0.4218±0.1305, FIG. 9c) | fraction of line-deformation cells ([3]; MDA-MB-231 on nanopillar arrays, 24-hour treatment, line = cell coherency >0.3, DMSO control 0.9333±0.1155, FIG. 9d) | change in nuclear deformation coherency / line deformation (in words) ([3]; MDA-MB-231 on nanopillar arrays, treated vs DMSO) | change in anisotropy (coherency) of induced nuclear deformation (in words) [4] | migration speed change (in words) [5] | migration rate change (in words) [6] |
| --- | --- | --- | --- | --- | --- | --- | --- | --- | --- | --- |
| COc1cccc2c1C(=O)c1c(O)c3c(c(O)c1C2=O)C[C@@](O)(C(=O)CO)C[C@@H]3O[C@H]1C[C@H](N)[C@H](O)[C@H](C)O1 [DOX, doxorubicin] | 0.607±0.152 | 0.3057±0.1862 | significantly high lamin A level |  |  |  |  |  |  |  |
| COc1cc([C@@H]2c3cc4c(cc3[C@@H](O[C@@H]3O[C@@H]5CO[C@@H](C)O[C@H]5[C@H](O)[C@H]3O)[C@H]3COC(=O)[C@H]23)OCO4)cc(OC)c1O [Etop, etoposide] | 0.772±0.079 | 0.2606±0.1564 | significantly high lamin A level |  |  |  |  |  |  |  |
| COc1cc(/C=C/C(=O)CC(=O)/C=C/c2ccc(O)c(OC)c2)ccc1O [curcumin] |  |  |  | 1 | 0.2426±0.1570 | 0.2646±0.2695 | significant decreases in nuclear deformation coherency; also recorded: significantly less line deformation | no significant coherency changes; also recorded: No significant change | do not show significant changes in migration speed | lower migration rate |
